Reference: patent US20120213826A1, “Use of Pro-Inflammatory Compounds for Promoting Bone Formation” (Imperial Innovations Limited, priority 2009, published 2012)
“Also recorded” adds a separate entry of the source. Read-outs that look alike come from different tables or passages of the source.

How the values were obtained:
Aqueous solubility = type: physicochemical
[1] = system: murine open tibial fracture; experiment: Murine open tibial fracture model, periosteally stripped (histology, CT scans); type: in vivo, C57BI/6 mice; details: for fracture healing: 1-MT, 20 μl in PBS at fracture site; for healing of tibial fractures by CT scans: 28 days post injury, local administration at fracture site (TNFα 50 ng/kg and HMGB1 at time of fracture and 24 hr later) (FIG. 19, 30)
[2] = system: muscle-derived stromal cells (MDSC); experiment: MDSC migration through a transwell membrane; type: cell-based, human; details: for migration of MDSC: 8 μm transwell, 36 hours, recombinant cytokine in human serum-containing media (FIG. 27B)
Procedure: Migration of 1×10^4 MDSC through an 8 μm pore transwell membrane over 36 hours, in response to fracture supernatant with the addition of AbTNF-α, AbIL-6 and AbIL-1β. The IgG^1 immunoglobulin was used as the antibody control. B: Migration in response to rhTNF-α, rhIL-6 and rhIL-1β in human serum-containing media. Results represent change in cell number, expressed as a percentage of the supernatant, or media only control. Each experiment was performed 3 times (n=3) using 3 fracture supernatants (in A). Results represent mean of 3 experiments ±SEM. *: P<0.05; **: P<0.01; ***: P<0.001; 1-way ANOVA with Bonferroni's multiple comparison test.
MDSC must be recruited to the fracture site from adjacent muscle. Next we assessed the efficacy of the pro-inflammatory cytokines in attracting MDSC in vitro using a transwell assay. 1×10^4 MDSC were seeded onto a 8 μm transwell membrane in serum free media. Next day, the transwell membrane was added to a well containing 10% human serum-containing media +IL-1β, IL6 and TNFα at the end concentrations shown. At 24 hrs the membrane was cleared of any cells on the seeded side, fixed and stained. IL-1β appeared not promote MDSC chemotaxis.
500 μl serum free media was added to each well of a 24 well plate. 8 μm pore transwell membranes (VWR International Ltd) were then added to the wells. 1×10^4 MDSC in serum free media were added to the upper chamber of each transwell membrane. At 12 hours the serum-free media was replaced with test or control media or supernatant and incubated at 37° C. for 36 hours. The upper chambers were then cleared of cells and cell debris using a cotton bud, in sweeping motions. The membrane was then washed and fixed using 10% neutral buffered formalin for 1 hour. After washing, the membrane was then added to a 1% crystal violet solution for 1 hour. After further washing, the membranes were viewed under light microscopy at 20 times magnification, using an Olympus CKX41 microscope with a QICAM camera, (QIMAGING, GT vision LLC). The number of cells present on the underside of the transwell membrane in any random field was counted 3 times and the mean calculated. Cell migration was calculated against the supernatant or human serum-containing (control) media and the number expressed as a percentage relative to the control media.

[3] = system: muscle-derived stromal cells (MDSC); experiment: MDSC proliferation (CellTiter-Glo luminescent cell viability assay); type: cell-based, human; details: Example 3; for MDSC proliferation: 1, 3 and 5 days in human serum-containing media ± recombinant human cytokine (FIG. 28); for cell proliferation in excess of the media-only control: recombinant human BMPs, data not shown
Procedure: CellTiter-Glo® luminescent cell viability assay for MDSC in culture with A: TNF-α, B: IL-6 and C: IL-1β. 2.5×10^3 cells were cultured in triplicate for 1, 3 and 5 days in human serum-containing media ± recombinant human cytokine at the concentration indicated. The number of viaBIe cells in culture was determined using the assay, where luminescent signal is directly proportional to the concentration of ATP from viaBIe cells.
In order to test this hypothesis, proliferation of MDSC in human serum-containing media with rhTNF-α, rhIL-6 and rhIL-1β was tested using the CellTiter-Glo® luminescent cell viability assay was used (Promega Corp., Madison, Wis.).
This method assays the number of viaBIe cells in culture, by measuring adenosine triphosphate (ATP), where the luminescent signal is directly proportional to the number of ATP present.

[4] = system: muscle-derived stromal cells (MDSC); experiment: ALP quantification assay, osteogenic differentiation of cultured MDSC; type: cell-based, human; details: for ALP expression (osteogenic differentiation) in cultured MDSC: Example 1, exogenous recombinant human factor added to MDSC culture (FIG. 8, 10, 12); for ALP expression by MDSC: 7 days in human serum-containing media with recombinant human factor (FIG. 26B, 26D)
Description: The immunoglobulin isotype controls used included IgG^1 for AbBMP-2/4 and AbTGF-β, and IgG^2B for Ab-BMP-7. B: human serum containing culture medium with the addition of recombinant human BMPs and TGF-β. C: fracture supernatant±antibody neutralization of TNF-α, IL-6 and IL-1β. The IgG^1 immunoglobulin was used as the antibody isotype control. D: human serum-containing culture medium with the addition of recombinant human TNF-α, IL-6 and IL-1β. E: Alizarin red staining for bone nodule formation after culture of 1×10^4 MDSC in human serum-containing media. […] A representative image from a single well is shown. All experiments were performed 3 times, in triplicate (n=3) using MDSC from 3 donors. Values for A-D represent a mean from 3 experiments ±SEM, using supernatant from 3 donors in A and C. *: P<0.05; **: P<0.01; ***: P<0.001; 1-way ANOVA with Bonferroni's multiple comparison test in A and C and with Dunnett's multiple comparison test against the media only control in B and D.
To investigate the fracture-derived stimulus for osteogenic differentiation of MDSC, fracture supernatants were prepared using human tibial fracture fragments obtained within 24 hours of injury (ethics approval number—COREC No: 07/Q0411/30). […] Bone fragments were obtained from either fractured tibial fragments or non-traumatically cut bone slices. These were then incubated in serum free DMEM+Glutamax media for 24 hours. The supernatant was then filter sterilised to remove any contaminants and cellular debris. MDSC were then cultured in the presence of either control media, osteogenic media, fracture supernatant or non-fracture supernatant for 7 days before lysis and quantification of ALP levels.
1×10^4 human MDSC were added to wells of a 96 well plate in triplicate. At 24 hrs the media was pipetted off and replaced by 200 μl test media. The media was changed every 3 days. At 7 days the media was removed and the cells lysed in 20 μl NP-40 lysis buffer. An ALP quantification assay (WAKO pure chemical Ltd.) was used. Calibration solution from the assay was serially diluted to make concentrations of 0.25, 0.125 and 0.0625 mmol/L. To empty wells, 20 μl of each calibration solution was added. To another, dH2O was added. 100 μl reagent (1 taBIet per 5 ml buffer solution) was added to each well, and incubated at 37° C. for 20 minutes. 80 μl stop solution was then added to each well and the plate was read using an ELISA spectrometer at 405 nm wavelength. The concentration of ALP in the test wells was extrapolated from the standard curve.

[5] = system: muscle-derived stromal cells (MDSC); experiment: Bone nodule formation by MDSC (alizarin red staining); type: cell-based, human; details: Example 3; recombinant cytokine at optimal dose for first 3 days, human serum-containing media (FIG. 26E)
Description: FIG. 26 TNF-α and IL-6 promote osteogenic differentiation of MDSC A-D: ALP quantification assays after culture of 1×10^4 MDSC for 7 days in a 96-well plate in triplicate with: A: fracture supernatant, ±antibody neutralization of BMPs 2/4 7 and to TGF-β. The immunoglobulin isotype controls used included IgG^1 for AbBMP-2/4 and AbTGF-β, and IgG^2B for Ab-BMP-7. B: human serum containing culture medium with the addition of recombinant human BMPs and TGF-β. C: fracture supernatant±antibody neutralization of TNF-α, IL-6 and IL-1β. The IgG^1 immunoglobulin was used as the antibody isotype control. D: human serum-containing culture medium with the addition of recombinant human TNF-α, IL-6 and IL-1β. E: Alizarin red staining for bone nodule formation after culture of 1×10^4 MDSC in human serum-containing media. Recombinant human cytokine at the optimal dose indicated by D, was added for the first 3 days ONLY, and the cells were subsequently cultured in media for 32 days. A representative image from a single well is shown. All experiments were performed 3 times, in triplicate (n=3) using MDSC from 3 donors. Values for A-D represent a mean from 3 experiments ±SEM, using supernatant from 3 donors in A and C. *: P<0.05; **: P<0.01; ***: P<0.001; 1-way ANOVA with Bonferroni's multiple comparison test in A and C and with Dunnett's multiple comparison test against the media only control in B and D.
1×10^4 MDSC were added to wells of a 24-well plate in triplicate. The cells were cultured for 35-40 days in osteogenic media (DMEM with 10% fetal calf serum and 1% penicillin/streptomycin also containing 100 nM dexamethasone (SIGMA), 1 mM β-glycerol phosphate and […] ascorbic acid), supernatant or media containing recombinant cytokines (with one media change per week) the cells were fixed with 2 ml 10% neutral buffered formalin at room temperature for 15 min. The plate was then washed twice with excess PBS. 1 ml filtered 40 mM alizarin red solution (pH 4.1) was added to each well and agitated at room temperature for 30 minutes. The excess dye was then aspirated and the plate washed four times in distilled water with gentle agitation. Finally, the plates were turned upside-down on paper to dry. Bone nodules appeared red under light microscopy. Images were taken at 20 times magnification and performed as above.

For Cn1cc(C[C@H](N)C(=O)O)c2ccccc21 [1-MT, 1-methyl tryptophan, reference compound], the aqueous solubility (Aqueous solubility) was “poorly soluBIe in aqueous solutions”, the aqueous solubility (Aqueous solubility; listed as 1MT) was “poor aqueous solubility” and the fracture healing ([1]; histology day 14 (FIG. 21)) was “accelerated fracture healing”. For the same molecule, the fracture healing ([1]; histology day 14 (FIG. 21), listed as 1-methyl tryptophan) was “dose dependent acceleration of fracture healing”, the “healing of tibial fractures by CT scans” value [1] was “trend to improved healing but did not reach statistical significance” and the “dose of greatest response (maximal dose tested)” value ([1]; FIG. 21) was 500 µg/mL. For the same molecule, the “concentrations giving accelerated fracture healing” value ([1]; within the range tested (0.5-5 mg/kg), histology day 14 (FIG. 21)) was ≥ 500 µg/mL.

For “IL-1β: pro-inflammatory cytokine, recombinant human IL-1β”, the “migration of MDSC” value ([2]; Example 3) was “did not appear to promote MDSC migration”, the MDSC proliferation [3] was “do not promote MDSC proliferation” and the “ALP expression (osteogenic differentiation) in cultured MDSC” value [4] was “dose-dependent stimulation of ALP expression”. For the same molecule, the “concentration of peak ALP expression by MDSC” value ([4]; Example 3, variable between donor cell populations (FIG. 26D)) was 100 µg/mL and the “bone nodule formation by MDSC” value [5] was “did not stimulate bone nodule formation”.

In the case of “IL-6: pro-inflammatory cytokine, recombinant human IL-6”, the “chemotaxis / migration of MDSC” value ([2]; Example 1, transwell, 10% human serum-containing media, 24 hrs (FIG. 14)) is reported as “promote chemotaxis of MDSC”, the “migration of MDSC” value ([2]; Example 3) is reported as “chemo attractant for MDSC” and the “optimal concentration for MDSC migration” value ([2]; Example 3, transwell, 36 hours (FIG. 27B)) is reported as 1 ng/mL. The MDSC proliferation [3] was “do not promote MDSC proliferation”, the “ALP expression (osteogenic differentiation) in cultured MDSC” value [4] was “dose-dependent stimulation of ALP expression” and the “ALP expression by MDSC” value ([4]; Example 3) was “increased with the dose through the range tested”. The “bone nodule formation by MDSC” value [5] was “promoted de novo bone formation”.

For TGF-β, the “ALP expression (osteogenic differentiation) in cultured MDSC” value [4] was “promotes osteogenic differentiation” and the “ALP expression by MDSC” value ([4]; Example 3) was “did not induce ALP expression”.

B1: BMP7: recombinant human bone morphogenetic protein 7 (protein, UniProt P18075 293-431, looked up)
Bone morphogenetic protein 7: STGSKQRSQNRSKTPKNQEALRMANVAENSSSDQRQACKKHELYVSFRDLGWQDWIIAPEGYAAYYCEGECAFPLNSYMNATNHAIVQTLVHFINPETVPKPCCAPTQLNAISVLYFDDSSNVILKKYRNMVVRACGCH
In the case of B1, the “cell proliferation in excess of the media-only control” value [3] is reported as “did not induce cell proliferation”, the “ALP expression (osteogenic differentiation) in cultured MDSC” value [4] is reported as “promotes osteogenic differentiation” and the “ALP expression by MDSC” value ([4]; Example 3) is reported as “did not induce ALP expression”.

B2: HMGB1: damage associated molecular pattern molecule (alarmin), RAGE ligand protein (protein, UniProt P09429 1-215, looked up)
High mobility group protein B1: MGKGDPKKPRGKMSSYAFFVQTCREEHKKKHPDASVNFSEFSKKCSERWKTMSAKEKGKFEDMAKADKARYEREMKTYIPPKGETKKKFKDPNAPKRPPSAFFLFCSEYRPKIKGEHPGLSIGDVAKKLGEMWNNTAADDKQPYEKKAAKLKEKYEKDIAAYRAKGKPDAAKKGVVKAEKSKKKKEEEEDEEDEEDEEEEEDEEDEDEEEDDDDE
With B2 the “healing of tibial fractures by CT scans” value [1] was “statistically significantly enhanced healing; also recorded: accelerates fracture healing”.

B3: IFN-γ: proinflammatory cytokine, recombinant human Interferon-gamma (protein, UniProt P01579 24-161, looked up)
Interferon gamma: QDPYVKEAENLKKYFNAGHSDVADNGTLFLGILKNWKEESDRKIMQSQIVSFYFKLFKNFKDDQSIQKSVETIKEDMNVKFFNSNKKKRDDFEKLTNYSVTDLNVQRKAIHELIQVMAELSPAAKTGKRKRSQMLFRG
In the case of B3, the “ALP expression (osteogenic differentiation) in cultured MDSC” value [4] is reported as “modest dose-dependent stimulation of osteogenesis”.

B4: BMP4: recombinant human bone morphogenetic protein 4 (protein, UniProt P12644 293-408, looked up)
Bone morphogenetic protein 4: SPKHHSQRARKKNKNCRRHSLYVDFSDVGWNDWIVAPPGYQAFYCHGDCPFPLADHLNSTNHAIVQTLVNSVNSSIPKACCVPTELSAISMLYLDEYDKVVLKNYQEMVVEGCGCR
In the case of B4, the “cell proliferation in excess of the media-only control” value [3] is reported as “did not induce cell proliferation” and the “ALP expression by MDSC” value ([4]; Example 3) is reported as “did not induce ALP expression”.
